SMILES strings stand for the structures. Values joined by “and” are separate entries in the source; they are usually repeats but may differ in a detail not shown here. Equal entries are not always repeated.

Data set [1] relates to patients with ulcerative colitis. Nature of the data set: Comparative Example 1: 10 g L-glutamine via the large intestinal route, frequencies of bowel movements and diarrhea. The data set is classed as in vivo, humans. As to the method: 10 g of L-glutamine was added to 60 mL of “Predonema®” Enema, and the mixture was administered via the large intestinal route to patients with ulcerative colitis. The frequencies of bowel movements and diarrhea were measured. […] Meanwhile, the patients were treated with “Predonema®” from Day 1 to Day 14, and 60 mL of “Predonema®” Enema prepared by adding 10 g of L-glutamine thereto was administered via the large intestinal route to the patients from Day 15 to Day 28.

For data set [2], the system named is epithelial injuries in the upper digestive tracts such as the stomach and the duodenum. Particulars: dose of about 2 g a day; Non-patent Literatures 8 and 9; cited from earlier work.
Data set [3] deals with DSS model in mice (ulcerative colitis developed by 5% DSS water). Nature of the data set: Drug efficacy test by enema administration of glutamine on DSS model in mice. It counts as in vivo, mouse. Conditions: sixth day after start of drinking DSS water, FIG. 1. As for the experimental part:
5% DSS water (dissolving dextran sulfate sodium in tap water) was drank ad lib by a male C57BL/6 Cr Slc mouse of 8 weeks old, and it developed ulcerative colitis. From one day before starting drinking of DSS water, L-glutamine was administered via the large intestinal route to the mouse once a day. An enema agent (solution) having the composition of 0.5% (w/v) carboxymethylcellulose—sodium was used as the enema agent. As the disease activity index, each average value of body weight scores, blood feces scores and diarrhea scores was calculated referring to the report of HS. Cooper et al. (Laboratory Investigation 1993; 69(2): 238).

Data set [4] concerns rat models of TNBS. Particulars: 0.25 to 0.4 g/kg via the large intestinal route; Non-patent Literatures 13 and 14; cited from earlier work.
In data set [5] the test system is patients with ulcerative colitis. Nature of the data set: Example 1: 2 g L-glutamine enema, frequencies of bowel movements and diarrhea, blood feces scores. It counts as in vivo, humans. Set-up: key to Blood feces score, Aft. admin.: blood feces score averaged per day: 0 = none, 1 = less, 3 = a lot. As for the experimental part: Further, 60 mL of an enema agent prepared by adding 2 g of L-glutamine to sterilized water was administered via the large intestinal route to the patients with ulcerative colitis having the same symptoms as mentioned above (Case Nos. 5 and 9 to 14).
In addition, the patients with ulcerative colitis of Comparative Example and Example take a 5-ASA agent(s) (“Pentasas” or “Salazopyrin®”) as an oral agent conforming to dosage and administration.
The frequencies of bowel movements and diarrhea, and blood feces scores were measured of these patients.

Setting [6] is: 2 g L-glutamine enema, with or without Predonema.
Setting [7] is: 2 g L-glutamine enema, oral 5-ASA agent.

Consider `NC(=O)CC[C@H](N)C(=O)O` [Gln, L-glutamine], for which the “frequency of bowel movements” value in data set [1] (10 g L-glutamine added to 60 mL Predonema Enema, Day 15 to Day 28, after Predonema alone Day 1 to Day 14, oral 5-ASA agent, FIG. 2) is listed as “increased”. Further, the “blood feces (observation of feces)” value in data set [1] (10 g L-glutamine added to 60 mL Predonema Enema, Day 15 to Day 28, oral 5-ASA agent) is recorded as “improving effect of blood feces was recognized”. Besides, the “frequency of bowel movements” value in data set [1] (10 g of L-glutamine via the large intestinal route to humans) is reported as “frequency of bowel movements increases”. In addition, in data set [2], the “effectiveness against epithelial injuries in the upper digestive tracts” value is on record as “effective”. Besides, the “disease activity index (average of body weight, blood feces and diarrhea scores) versus vehicle-treated group” value in data set [3] (30 mg/kg once a day via the large intestinal route) is reported as “no significant difference”. In data set [3] (100 mg/kg once a day via the large intestinal route), the “disease activity index (average of body weight, blood feces and diarrhea scores) versus vehicle-treated group” value is recorded as “no significant difference”. In addition, the “effectiveness in animal enteritis models” value in data set [4] is given as “effective”. In data set [5] (setting [6]), the “frequency of bowel movements (summary of Table 1)” value is given as “maintained the frequency of bowel movements” and the “improvement in blood feces (summary of Table 1)” value is given as “improvement in blood feces was recognized in all cases”. Besides, the “diarrhea (summary of Table 1)” value in data set [5] (2 g L-glutamine enema, as shown in Case Nos. 4 and 5) is “able to improve diarrhea”. In addition, in data set [5] (setting [7]), the “cases in which the blood feces improved” value was 3 out of 7 and the “improvement rate (blood feces)” value was determined as 43%. Besides, the “Blood feces score, Aft. admin.” value in data set [5] (2 g L-glutamine in 60 mL enema, admin. period 14-39 per case, oral 5-ASA agent, single patient, average per day, no blood feces: 0, less: 1, a lot: 3) was 1.3 and 1.0 (2×) and 0.8 and 0.9. Also, the “Freq. of bowel movement, Aft. admin.” value in data set [5] (2 g L-glutamine in 60 mL enema, large intestinal route, admin. period 14-39 per case, all with oral 5-ASA agent, single patient) is 5.0 per a day and 5.3 per a day and 2.3 per a day and 13.9 per a day and 14.1 per a day. For the same molecule, the “freq. of diarrhea, Aft. admin.” value in data set [5] (2 g L-glutamine in 60 mL enema, large intestinal route, admin. period 14-39 per case, all with oral 5-ASA agent, single patient, number in ( )) is 0.1 per a day and 0.4 per a day and 0.0 per a day (2×) and 2.6 per a day. In addition, the “course of administration (stopped for aggravation of symptoms after starting administration)” value in data set [5] (2 g L-glutamine in 60 mL sterilized water enema, oral 5-ASA agent, single patient) is on record as “Stopped for aggravation”. Further, the “Freq. of bowel movement, Bef. admin.” value in data set [5] (baseline before administration, single patient (Case No.), average value per day of the period) is 4.5 per a day and 5.4 per a day and 2.5 per a day and 4.2 per a day and 6.7 per a day. The “freq. of diarrhea, Bef. admin.” value in data set [5] (baseline before administration, single patient (Case No.), number in ( )) was 2.0 per a day and 0.9 per a day and 0.0 per a day (2×) and 1.5 per a day. Moreover, in data set [5] (baseline before administration, single patient, average per day, no blood feces: 0, less: 1, a lot: 3), the “Blood feces score, Bef. admin.” value was 2.2 and 1.3 (2×) and 0.8 and 1.0.

(Values after patent publication US20090209503A1, “COLONIC DELIVERY THERAPEUTIC AGENTS FOR INFLAMMATORY BOWEL DISEASE” (AJINOMOTO CO. INC., priority 2005, published 2009).)
